The results in this text go back to US20090069418A1, “Compositions and Methods for the Treatment of Disorders Associated with Aberrant Vasodilation” (priority 2007, published 2009).

The structures appear in SMILES notation.

Series [1] is described as follows: Pharmacokinetics of AUDA-BE and its metabolites in plasma after single intraperitoneal injection. In kind it is in vivo, C57Bl/6 mice. The procedure:
A second set of animals was injected with sesame oil alone (vehicle). […] (2002) Biochem. Pharmacol., 63:1599-608; Watanabe et al. (2006) Anal. Chim. Acta., 559:37-44). Briefly, blood samples (10 μL) were collected in 1.5 mL Eppendorf microcentrifuge tubes, weighed, and vortexed with 100 μL of purified water. […] Aliquots (10 μL) were analyzed by liquid chromatography coupled mass spectroscopy LC-MS/MS (Watanabe et al. (2006) Anal. Chim. Acta., 559:37-44; Watanabe and Hammock (2001) Anal. Biochem., 299:227-34). The concentration of sEH inhibitors were quantified in extracts using HPLC with positive mode electrospray ionization and tandem mass spectrometry. Analytes were quantified on a 5-point curve with internal standard methods. Surrogate recoveries were evaluated by quantification against the internal standard. Surrogate recoveries were 70% for all reported plasma samples, the analysis of reagent blanks, matrix spikes, and analytical replicates were used to document method stability during this study. […] Differences in infarct size, enzyme activity, and blood flow rates were analyzed with a t-test for two groups and analysis of variance with post hoc Newman-Keuls multiple range test for multiple groups. The pharmacokinetic profile was examined for goodness of fit to a noncompartmental or multicompartmental models. Pharmacokinetic parameters were then obtained by fitting the blood-concentration-time data to a non-compartmental model with the WinNonlin software (Pharsight, Mountain View, Calif., USA), as described previously (Watanabe et al. (2006) Anal. Chim. Acta., 559:37-44). The criterion for statistical significance was set at P<0.05. All values are reported as mean±s.e.m.

Another series deals with C57Bl/6 mice. In words: Middle cerebral artery occlusion in mice, infarct size (Example 2). The class given is in vivo. The note with it: for infarct size after 2-hour MCAO: vehicle 33±2%; for reduction of infarct size compared with vehicle: 10 mg/kg. The procedure:
(2001) J. Neurosci., 21:7543-50). […] A small laser-Doppler probe was affixed to the skull to monitor cortical perfusion and verify vascular occlusion and reperfusion. […] After securing the filament in place, the surgical site was closed, and the animal was awakened and assessed at 2 hours of occlusion for neurological deficit using a simple neurological scoring system as follows: 0=no deficit, 1=failure to extend forelimb, 2=circling, 3=unilateral weakness, 4=no spontaneous motor activity. Mice with clear neurological deficit were re-anesthetized, laser-Doppler probe re-positioned over same site on the skull, and the occluding filament was withdrawn to allow for reperfusion. Mice were then allowed to recover and observed for 1 day. […] Slices were photographed, and infarcted (unstained) and uninfarcted (red color) areas were measured with MCID software (InterFocus Imaging Ltd, Linton, UK) and integrated across all five slices. To account for the effect of edema, the infarcted area was estimated indirectly by subtracting the uninfarcted area in the ipsilateral hemisphere from the contralateral hemisphere, and expressing infarct volume as a percentage of contralateral hemisphere. […] (2000) J. Physiol. Pharmacol., 51:655-72). […] Animals were randomly assigned to treatment groups.

Turning to `CCCCOC(=O)CCCCCCCCCCCNC(=O)NC12CC3CC(CC(C3)C1)C2` [AUDA-BE, 12-(3-adamantane-1-yl-ureido)-dodecanoic acid butyl ester], in series [1] (10 or 40 mg/kg doses), the “adverse effects during the 24-hour period after drug administration” value is recorded as “No apparent adverse effects”. For the same compound, the “detection of parent drug in plasma” value in series [1] (AUDA-BE 10 mg/kg intraperitoneal) is “only the metabolites AUDA and AUBA were detected”. Further, in series [1] (AUDA-BE 40 mg/kg intraperitoneal, within the first hour), the “maximum concentration in plasma” value was determined as 2 µmol/L. The “infarct size after 2-hour MCAO” value in the series on C57Bl/6 mice (10 mg/kg intraperitoneally 1 hour before (pre)) came out at 20±5%; in the series on C57Bl/6 mice (10 mg/kg intraperitoneally at the time of reperfusion (post)) it was 16±6%. Further, the “reduction of infarct size compared with vehicle” value in the series on C57Bl/6 mice (1 hour before (pre)) worked out at 40%; with C57Bl/6 mice (at the time of reperfusion (post)) it was 50%. The “infarct size after MCAO” value in the series with C57Bl/6 mice (AUDA-BE 10 mg/kg at reperfusion combined with MS-PPOH (0.5 mg/200 mL over 24 hours before MCAO, osmotic minipump)) was found to be 34±7%.
